Source: paper PMC9181987, “Disclosing the Potential of Fluorinated Ionic Liquids as Interferon-Alpha 2b Delivery Systems” (Nanomaterials, 2022)
Several values for one entry are separate records, joined by “and”; a condition that tells them apart may be missing. Equal entries are not always repeated.

Legend:
IFN-α 2b = target: T1, IFN-α 2b (Homo sapiens, UniProt P01563); experiment: Microscale thermophoresis (MST) binding affinity of FILs with labelled IFN-α 2b; settings: for Kd: labelled IFN-α 2b 2.7 μM, 5 mM NaH2PO4 pH 7.4, 25 °C, ± = Kd confidence of the fitting
T1 construct: purchased Sigma-Aldrich SRP4595; host or cells: E. coli
T1 sequence (P01563 24-188): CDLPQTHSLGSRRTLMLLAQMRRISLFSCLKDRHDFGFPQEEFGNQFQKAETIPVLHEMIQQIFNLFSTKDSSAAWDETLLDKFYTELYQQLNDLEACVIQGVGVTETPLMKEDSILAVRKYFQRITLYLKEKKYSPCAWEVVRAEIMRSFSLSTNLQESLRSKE
Description: Several dilution series of 16 samples of 20 μL were prepared in triplicate for each studied system. All the solutions were prepared in the buffer of the protein, 5 mM of NaH2PO4 (pH = 7.4), and PCR tubes. In the first tube (1 out 16) 20 μL of FIL stock solution was added at twofold the maximum concentration defined for each assay. In the remaining 15 tubes, 10 μL of buffer was added, followed by the series dilution of the FIL. […] The selected concentrations cover the range where the distinct CACs are formed in each FIL. The excitation power was determined by a pre-test and set to 20% whereas the MST power was set to medium (standard). The assays were executed in standard capillaries and triplicates. The results were processed using the MO.Affinity Analysis v2.3 software (NanoTemper Technologies, Munich, Germany).
In the process of labelling, commonly, one amine per protein is labelled, statistically distributing the position of the dye. […] As explained in the experimental section, in each run of MST, a maximum concentration is chosen and is consecutively diluted in 16 capillaries.

[1] = Conductivity titration: critical aggregation concentrations, ionization degree, Gibbs free energy of aggregation; assay type: physicochemical; set-up: First CAC (wFIL) / Third CAC (wFIL): unit not given here; settings: 25°C
Description: For this purpose, a CDM210 conductometer (Radiometer Analytical, Lyon, France) and a CDC749 electrode (Radiometer Analytical, Lyon, France) were utilized. The electrode was calibrated at 25 °C using two standard solutions of 0.1 and 0.01 D KCl (Radiometer Analytical). The standard solutions and samples were measured inside of a glass cell in a thermostated bath at 25 °C with constant magnetic stirring. […] Each sample was then placed on the cell, stirred, and had its ionic conductivity measured. […] This experimental procedure was carried out until the ionic conductivity reached a plateau. […] The ionic conductivity was measured at least three times before adding more solution and the uncertainty of each measurement was estimated to be less than 1%.
A thorough analysis of the conductivity profile was advanced by applying the Phillips definition, which studies the change of the slopes of the conductivity curve along with the variation in FIL concentration.
From the parameter α, the degree of counterion binding, β, can be calculated. This parameter is associated with the charge density at the surface, the size, and the hydrophobic nature of the aggregate. It is given by the following equation:β = 1 − α(1)
Another parameter was considered in this study related to the spontaneity of a surfactant to aggregate, given by the standard Gibbs free energy of aggregation, ΔGagg0 . This parameter is provided by the pseudophase model of micellization, using the equation:(2) ΔGagg0=RT(1+β)lnxCAC where R is the universal gas constant, T is the absolute temperature and xCAC corresponds to the value of CAC in molar fraction. As long as this parameter is more negative, this means that the process of aggregation in the specific CACs is more spontaneous.

[2] = set-up: method as in earlier work; settings: 25°C, ref [1], cited from earlier work
[3] = Dynamic light scattering: aggregate size and polydispersity index; assay type: physicochemical; settings: 150 mM NaH2PO4, 25°C
Description: These concentrations were chosen to comprise two different aggregates of each FIL, above the 1st CAC and the 3rd CAC. […] Therefore, 20 μL was transferred into a quartz cell of 10 mm pathlength and measured at 25 °C.
Moreover, the polydispersity index (PdI) was obtained by DLS which determines the heterogeneity of the sample in the function of the size.

[4] = 10 μg/mL IFN-α 2b + 5 mM NaH2PO4 (pH=7.4)

CCn1cc[n+](C)c1.O=S(=O)([O-])C(F)(F)C(F)(F)C(F)(F)C(F)(F)F [[C2C1Im][C4F9SO3], 1-Ethyl-3-methylimidazolium perfluorobutanesulfonate]
Kd (IFN-α 2b; assay 30 − 9.2 × 10^−4 mM FIL): 0.136 ± 0.117 mM
Kd (IFN-α 2b; assay 80 − 2.4 × 10^−3 mM FIL): 7.53 ± 5.61 mM
Kd (IFN-α 2b; assay 160 − 4.9 × 10^−3 mM FIL): 40.5 ± 29.5 mM
binding to IFN-α 2b (MST) (IFN-α 2b; range of concentrations under the 1st CAC, only FIL monomers): no binding was detected
First CAC [1, 4]: 15.19 mmol/kg
First CAC (wFIL) [1, 4]: 0.0062
Gibbs free energy of aggregation ΔG0agg, First CAC [1, 4]: -5.5 kcal/mol
Gibbs free energy of aggregation ΔG0agg, Second CAC [1, 4]: -4.85 kcal/mol
Gibbs free energy of aggregation ΔG0agg, Third CAC [1, 4]: -5.69 kcal/mol
Second CAC [1, 4]: 43.57 mmol/kg
Second CAC (wFIL) [1, 4]: 0.0179
Third CAC [1, 4]: 83.44 mmol/kg
Third CAC (wFIL) [1, 4]: 0.0342
ionization degree α, First CAC [1, 4]: 0.87
ionization degree α, Second CAC [1, 4]: 0.85
ionization degree α, Third CAC [1, 4]: 0.52
First CAC ([1]; 5 mM NaH2PO4 (pH=7.4)): 13.75 mmol/kg
First CAC (wFIL) ([1]; 5 mM NaH2PO4 (pH=7.4)): 0.0056
Gibbs free energy of aggregation ΔG0agg, First CAC ([1]; 5 mM NaH2PO4 (pH=7.4)): -5.66 kcal/mol
Gibbs free energy of aggregation ΔG0agg, Second CAC ([1]; 5 mM NaH2PO4 (pH=7.4)): -4.83 kcal/mol
Gibbs free energy of aggregation ΔG0agg, Third CAC ([1]; 5 mM NaH2PO4 (pH=7.4)): -6.36 kcal/mol
Second CAC ([1]; 5 mM NaH2PO4 (pH=7.4)): 46.13 mmol/kg
Second CAC (wFIL) ([1]; 5 mM NaH2PO4 (pH=7.4)): 0.0189
Third CAC ([1]; 5 mM NaH2PO4 (pH=7.4)): 83.13 mmol/kg and 80.35 mmol/kg
Third CAC (wFIL) ([1]; 5 mM NaH2PO4 (pH=7.4)): 0.0341
ionization degree α, First CAC ([1]; 5 mM NaH2PO4 (pH=7.4)): 0.85
ionization degree α, Second CAC ([1]; 5 mM NaH2PO4 (pH=7.4)): 0.85
ionization degree α, Third CAC ([1]; 5 mM NaH2PO4 (pH=7.4)): 0.34
First CAC ([1]; 25 mM KH2PO4 (pH=6.8)): 1.99 mmol/kg
First CAC (wFIL) ([1]; 25 mM KH2PO4 (pH=6.8)): 0.0008
Gibbs free energy of aggregation ΔG0agg, First CAC ([1]; 25 mM KH2PO4 (pH=6.8)): -10.7 kcal/mol
Gibbs free energy of aggregation ΔG0agg, Second CAC ([1]; 25 mM KH2PO4 (pH=6.8)): -5.76 kcal/mol
Gibbs free energy of aggregation ΔG0agg, Third CAC ([1]; 25 mM KH2PO4 (pH=6.8)): -7.15 kcal/mol
Second CAC ([1]; 25 mM KH2PO4 (pH=6.8)): 38.64 mmol/kg
Second CAC (wFIL) ([1]; 25 mM KH2PO4 (pH=6.8)): 0.0158
Third CAC ([1]; 25 mM KH2PO4 (pH=6.8)): 71.45 mmol/kg
Third CAC (wFIL) ([1]; 25 mM KH2PO4 (pH=6.8)): 0.0293
ionization degree α, First CAC ([1]; 25 mM KH2PO4 (pH=6.8)): 0.24
ionization degree α, Second CAC ([1]; 25 mM KH2PO4 (pH=6.8)): 0.66
ionization degree α, Third CAC ([1]; 25 mM KH2PO4 (pH=6.8)): 0.18
First CAC ([1]; 100 mM HCl (pH=1.2)): 4.65 mmol/kg
First CAC (wFIL) ([1]; 100 mM HCl (pH=1.2)): 0.0019
Gibbs free energy of aggregation ΔG0agg, First CAC ([1]; 100 mM HCl (pH=1.2)): -11.1 kcal/mol
ionization degree α, First CAC ([1]; 100 mM HCl (pH=1.2)): 0.003
First CAC ([1]; 150 mM NaCl (pH=7.3)): 3.51 mmol/kg
First CAC (wFIL) ([1]; 150 mM NaCl (pH=7.3)): 0.0014
Gibbs free energy of aggregation ΔG0agg, First CAC ([1]; 150 mM NaCl (pH=7.3)): -10.7 kcal/mol
Gibbs free energy of aggregation ΔG0agg, Second CAC ([1]; 150 mM NaCl (pH=7.3)): -5.47 kcal/mol
Gibbs free energy of aggregation ΔG0agg, Third CAC ([1]; 150 mM NaCl (pH=7.3)): -7 kcal/mol
Second CAC ([1]; 150 mM NaCl (pH=7.3)): 33.69 mmol/kg
Second CAC (wFIL) ([1]; 150 mM NaCl (pH=7.3)): 0.0138
Third CAC ([1]; 150 mM NaCl (pH=7.3)): 83.46 mmol/kg
Third CAC (wFIL) ([1]; 150 mM NaCl (pH=7.3)): 0.0342
ionization degree α, First CAC ([1]; 150 mM NaCl (pH=7.3)): 0.14
ionization degree α, Second CAC ([1]; 150 mM NaCl (pH=7.3)): 0.75
ionization degree α, Third CAC ([1]; 150 mM NaCl (pH=7.3)): 0.17
First CAC ([1]; 150 mM NaH2PO4 (pH=7.4)): 14.57 mmol/kg
First CAC (wFIL) ([1]; 150 mM NaH2PO4 (pH=7.4)): 0.0060
Gibbs free energy of aggregation ΔG0agg, First CAC ([1]; 150 mM NaH2PO4 (pH=7.4)): -5.59 kcal/mol
Gibbs free energy of aggregation ΔG0agg, Second CAC ([1]; 150 mM NaH2PO4 (pH=7.4)): -5.16 kcal/mol
Gibbs free energy of aggregation ΔG0agg, Third CAC ([1]; 150 mM NaH2PO4 (pH=7.4)): -7.05 kcal/mol
Second CAC ([1]; 150 mM NaH2PO4 (pH=7.4)): 32.93 mmol/kg
Second CAC (wFIL) ([1]; 150 mM NaH2PO4 (pH=7.4)): 0.0135
Third CAC ([1]; 150 mM NaH2PO4 (pH=7.4)): 68.76 mmol/kg
Third CAC (wFIL) ([1]; 150 mM NaH2PO4 (pH=7.4)): 0.0282
ionization degree α, First CAC ([1]; 150 mM NaH2PO4 (pH=7.4)): 0.85
ionization degree α, Second CAC ([1]; 150 mM NaH2PO4 (pH=7.4)): 0.82
ionization degree α, Third CAC ([1]; 150 mM NaH2PO4 (pH=7.4)): 0.21
Amin, minimum area per surfactant molecule at the air/water interface [2]: 0.64 nm2
10^6 Γmax, maximum surface excess concentration ([2]; Water): 2.60 mol m-2
CAC (wFIL), tensiometer ([2]; Water): 0.0375
CAC, tensiometer ([2]; Water): 91.39 mmol⸱kg-1
critical packing parameter Peq 8 ([2]; Water): 0.439
critical packing parameter Peq 9 ([2]; Water): 0.442
surface tension at CAC, γCAC ([2]; Water): 24.5 mN m-1
ΔG0ad, standard free energy of adsorption ([2]; Water): -10.6 kcal/mol
ΠCAC, efficacy to reduce the surface tension ([2]; Water): 44.4 mN m-1
Polydispersity index (PdI) ([3]; 29.3 mM FIL): 1.000
Polydispersity index (PdI) ([3]; 243.8 mM FIL): 0.157
